Test system: S. carnosus TM300
Experiment: RNAseq differential gene expression
Format: cell-based, Staphylococcus carnosus
Method: For the RNAseq experiments, epilancin was added at sub-lethal concentration (0.5x MIC) to S. carnosus TM300 once the cultures reached an OD600 of 0.6. RNA was extracted 40 min after the treatment, using a FastRNA Pro Blue kit (MP Biomedicals). Both treated and parallel untreated samples were collected at the same time. Sequencing was performed at the Carver Biotechnology Center (UIUC). For RNAseq analysis, gene counts were read in to R (v3.1.1; [Team, 2014]), and 14/2441 genes were removed because they had fewer than 32 total counts across the six samples. edgeR’s (v3.6.7) TMM normalization ([Robinson and Oshlack, 2010]) plus negative binomial generalized log-linear model ([McCarthy et al., 2012]) was used to test for differential expression between treated and untreated groups, while accounting for pairing of U and T replicates from three different cultures. p-values were adjusted using the false discovery rate method ([Benjamini and Hochberg, 1995]).

With Epilancin 15X the “fold_change Sca_1501” value (hypothetical protein) was 2.75, the “fold_change Sca_1502” value (hypothetical protein) was 4.86 and the “fold_change Sca_1504” value (hypothetical protein) was 11.43. For the same substance, the “fold_change Sca_1505” value (hypothetical protein) was 11.29, the “fold_change Sca_1506” value (hypothetical protein) was 11.77 and the “fold_change Sca_1507” value (hypothetical protein) was 12.4. For the same substance, the “fold_change Sca_1508” value (hypothetical protein) was 10.53, the “fold_change Sca_1509” value (hypothetical protein) was 0.5 and the “fold_change Sca_1523” value (hypothetical protein) was 2.05. For the same substance, the “fold_change Sca_1526” value (hypothetical protein) was 2.58, the “fold_change Sca_1532” value (hypothetical protein) was 3.3 and the “fold_change Sca_1533” value (hypothetical protein) was 3.51. The “fold_change Sca_1534” value (hypothetical protein) was 2.71, the “fold_change Sca_1535” value (hypothetical protein) was 2.45 and the “fold_change Sca_1536” value (hypothetical protein) was 2.13. The “fold_change Sca_1587” value (hypothetical protein) was 2.19, the “fold_change Sca_1588” value (hypothetical protein) was 2.2 and the “fold_change Sca_1643” value (hypothetical protein) was 2.32. The “fold_change Sca_1645” value (hypothetical protein) was 2.04, the “fold_change Sca_1650” value (hypothetical protein) was 2.26 and the “fold_change Sca_1667” value (hypothetical protein) was 3.97. The “fold_change Sca_1668” value (hypothetical protein) was 3.55, the “fold_change Sca_1674” value (hypothetical protein) was 2.34 and the “fold_change Sca_1675” value (hypothetical protein) was 3.21. For the same substance, the “fold_change Sca_1681” value (hypothetical protein) was 2.25, the “fold_change Sca_1686” value (hypothetical protein) was 4.82 and the “fold_change Sca_1687” value (hypothetical protein) was 4.15. For the same substance, the “fold_change Sca_1689” value (hypothetical protein) was 2.35, the “fold_change Sca_1737” value (hypothetical protein) was 2.07 and the “fold_change Sca_1738” value (hypothetical protein) was 2.11. The “fold_change Sca_1755” value (hypothetical protein) was 3.06, the “fold_change Sca_1788” value (hypothetical protein) was 3.57 and the “fold_change Sca_1804” value (hypothetical protein) was 5.16. For the same substance, the “fold_change Sca_1805” value (hypothetical protein) was 2.14, the “fold_change Sca_1807” value (hypothetical protein) was 2.04 and the “fold_change Sca_1815” value (hypothetical protein) was 0.5. The “fold_change Sca_1838” value (hypothetical protein) was 2.29, the “fold_change Sca_1862” value (hypothetical protein) was 0.49 and the “fold_change Sca_1869” value (hypothetical protein) was 2.26. The “fold_change Sca_1903” value (hypothetical protein) was 4.81, the “fold_change Sca_1904” value (hypothetical protein) was 2.54 and the “fold_change Sca_1905” value (hypothetical protein) was 2.54. The “fold_change Sca_1906” value (hypothetical protein) was 2.34, the “fold_change Sca_1917” value (hypothetical protein) was 2.88 and the “fold_change Sca_1954” value (hypothetical protein) was 2.15. The “fold_change Sca_1959” value (hypothetical protein) was 7.97, the “fold_change Sca_1992” value (hypothetical protein) was 2.15 and the “fold_change Sca_2001” value (hypothetical protein) was 2.07. The “fold_change Sca_2004” value (hypothetical protein) was 2.83, the “fold_change Sca_2009” value (hypothetical protein) was 4.15 and the “fold_change Sca_2014” value (hypothetical protein) was 2.23. For the same substance, the “fold_change Sca_2018” value (hypothetical protein) was 2.95, the “fold_change Sca_2020” value (hypothetical protein) was 2.38 and the “fold_change Sca_2021” value (hypothetical protein) was 2.73. For the same substance, the “fold_change Sca_2022” value (hypothetical protein) was 2.89, the “fold_change Sca_2023” value (hypothetical protein) was 3.49 and the “fold_change Sca_2024” value (hypothetical protein) was 8.09. For the same substance, the “fold_change Sca_2051” value (hypothetical protein) was 2.03, the “fold_change Sca_2066” value (hypothetical protein) was 2.09 and the “fold_change Sca_2098” value (hypothetical protein) was 2.16. The “fold_change Sca_2099” value (hypothetical protein) was 2, the “fold_change Sca_2122” value (hypothetical protein) was 2.08 and the “fold_change Sca_2131” value (hypothetical protein) was 4.04. The “fold_change Sca_2132” value (hypothetical protein) was 2.49, the “fold_change Sca_2133” value (hypothetical protein) was 2.15 and the “fold_change Sca_2136” value (hypothetical protein) was 3. For the same substance, the “fold_change Sca_2141” value (hypothetical protein) was 2.34, the “fold_change Sca_2182” value (hypothetical protein) was 0.5 and the “fold_change Sca_2186” value (hypothetical protein) was 2.4. The “fold_change Sca_2187” value (hypothetical protein) was 2.82, the “fold_change Sca_2188” value (hypothetical protein) was 5.77 and the “fold_change Sca_2193” value (hypothetical protein) was 5.14. For the same substance, the “fold_change Sca_2202” value (hypothetical protein) was 2.52, the “fold_change Sca_2207” value (hypothetical protein) was 2.06 and the “fold_change Sca_2209” value (hypothetical protein) was 2.42. For the same substance, the “fold_change Sca_2213” value (hypothetical protein) was 2.61, the “fold_change Sca_2215” value (hypothetical protein) was 3.52 and the “fold_change Sca_2221” value (hypothetical protein) was 2.48. The “fold_change Sca_2222” value (hypothetical protein) was 2.24, the “fold_change Sca_2226” value (hypothetical protein) was 3.16 and the “fold_change Sca_2228” value (hypothetical protein) was 3.64. For the same substance, the “fold_change Sca_2229” value (hypothetical protein) was 3.47, the “fold_change Sca_2230” value (hypothetical protein) was 2.6 and the “fold_change Sca_2231” value (hypothetical protein) was 2.37. For the same substance, the “fold_change Sca_2235” value (hypothetical protein) was 2.04, the “fold_change Sca_2236” value (hypothetical protein) was 2.08 and the “fold_change Sca_2253” value (hypothetical protein) was 0.5. The “fold_change Sca_2268” value (hypothetical protein) was 3.5, the “fold_change Sca_2269” value (hypothetical protein) was 3.56 and the “fold_change Sca_2273” value (hypothetical protein) was 11.9. For the same substance, the “fold_change Sca_2275” value (hypothetical protein) was 3.1, the “fold_change Sca_2284” value (hypothetical protein) was 0.49 and the “fold_change Sca_2295” value (hypothetical protein) was 4.48. The “fold_change Sca_2296” value (hypothetical protein) was 2.39, the “fold_change Sca_2297” value (hypothetical protein) was 2.21 and the “fold_change Sca_2299” value (hypothetical protein) was 5.46. The “fold_change Sca_2301” value (hypothetical protein) was 2.01, the “fold_change Sca_2334” value (hypothetical protein) was 5.35 and the “fold_change Sca_2337” value (hypothetical protein) was 2.1. The “fold_change Sca_2358” value (hypothetical protein) was 2.95, the “fold_change Sca_2370” value (hypothetical protein) was 2.53 and the “fold_change Sca_2373” value (hypothetical protein) was 3.45. The “fold_change Sca_2379” value (hypothetical protein) was 3.04, the “fold_change Sca_2384” value (hypothetical protein) was 2.31 and the “fold_change Sca_2385” value (hypothetical protein) was 3.04. The “fold_change Sca_2386” value (hypothetical protein) was 2.57, the “fold_change Sca_2398” value (hypothetical protein) was 19.58 and the “fold_change Sca_2399” value (hypothetical protein) was 20.62. For the same substance, the “fold_change Sca_2424” value (hypothetical protein) was 2.19, the “fold_change Sca_2425” value (hypothetical protein) was 2.2 and the “fold_change Sca_2426” value (hypothetical protein) was 3.85. The “fold_change Sca_2435” value (hypothetical protein) was 6.09, the “fold_change Sca_2436” value (hypothetical protein) was 5.9 and the “fold_change Sca_2437” value (hypothetical protein) was 4.25. For the same substance, the “fold_change Sca_2457” value (hypothetical protein) was 3.07, the “fold_change orf1” value (hypothetical protein) was 2.79 and the “fold_change ydfG” value (hypothetical protein) was 5.22. For the same substance, the “fold_change Sca_1639” value (hypothetical protein, gene fmhA') was 2.76, the “fold_change Sca_1638” value (hypothetical protein, gene fmhA'') was 3.24 and the “fold_change Sca_1124” value (iron uptake regulatory protein, gene fur) was 2.1. For the same substance, the fold_change geh (lipase (fragment 1), gene geh') was 2.82, the “fold_change geh'” value (lipase (fragment 2), gene geh'') was 2.62 and the “fold_change Sca_0327” value (lysine decarboxlyase family protein) was 5.96. The “fold_change dnaK” value (molecular chaperone DnaK) was 2.67 and the “fold_change moeA” value (molybdopterin biosynthesis protein MoeA) was 2.6.

Source: publication PMC10652874, “Investigation into the mechanism of action of the antimicrobial peptide epilancin 15X” (Frontiers in Microbiology, 2023)
